Test results reported in patent US20200000840A1, “USE OF CYCLODEXTRINS TO REDUCE ENDOCYTOSIS IN MALIGNANT AND NEURODEGENERATIVE DISORDERS” (priority 2016, published 2020).
Values joined by “and” are separate entries in the source; they are usually repeats but may differ in a detail not shown here. Equal values may be shown once. Read-outs that look alike come from different tables or passages of the source. Marks after values point to notes of the source that are not given here.

What was measured:
[1] = rats, rabbits, dogs, and humans; cited from earlier work
Ab1-40/42 = details: rats, stereotactical injection into the hippocampus; cited from earlier work
human keratinocytes = details: cited from earlier work
rats [2] = details: […] daily; cited from earlier work
BBB = details: cited from earlier work; for Transport across BBB: 2 h, 1 mM
rats [3] = details: cited from earlier work
rats [4] = details: rat; cited from earlier work
transferrin endocytosis = details: 10 mM; cited from earlier work
human erythrocytes = details: human erythrocytes; cited from earlier work
[5] = in vivo; cited from earlier work
MDA-MB-231 cells = experiment: Wound healing / gap closure migration assay (CytoSelect CBA-120); type: cell-based, human; details: treated 2 hours
Procedure: (§1) Published results have shown that β-CD inhibits human MDA-MB 231 cell migration (Guerra et al. 2016). This inhibition was attributed to the ability of β-CD to “deplete cholesterol”. β-CD, however, depletes also phospholipids. […] Cells were cultured in 24-well culture plates (Cytoselect CBA-120, 0.9 mm wound healing/gap closure migration assay) for 24 hours with wound healing insert in place. […] Protocol: Warm up the 24-well plate (CBA-120, Cell BioLabs Inc.) with 0.9 mm CytoSelect Wound Healing Inserts at room temperature for 10 minutes. Using sterile forceps, orient the desired number of inserts in the plate wells with their “wound field” aligned in the same direction. Create a cell suspension containing 0.5-1.0×10^6 cells/ml in media containing 10% fetal bovine serum (FBS). Add 500 μL of cell suspension to each well by carefully inserting the pipette tip through the open end at the top of the insert. For optimal cell dispersion, add 250 μL of cell suspension to either side of the open ends at the top of the insert. Incubate cells in a cell culture incubator for 12-24 hours. Carefully remove the insert from the well to begin the wound healing assay. Use sterile forceps to grab and lift the insert slowly from the plate well. Slowly aspirate and discard the media from the wells. Wash wells with media to remove dead cells and debris. Finally, add media to wells to keep cells hydrated. Repeat wash if wells still have debris or unattached cells. When washing is complete, add media with FBS and/or compounds to continue cell culture and wound healing process. Agents that inhibit or stimulate cell migration can be added directly to the wells. Incubate cells in a cell culture incubator (2 hours) and then wash cells with PBS and then add fresh media without compounds. Incubate 12-24 hours before wash and fixing. Remove the fixation solution and add 400 μL of Cell Stain Solution to each well. Allow the stain to incubate with the cells for 15 minutes at room temperature. Aspirate and discard the solution. Carefully wash each stained well 3× with deionized water. Discard washes and allow cells to dry at room temperature. Cells that migrated into the wounded area or protruded from the border of the wound were visualized and photographed under an inverted microscope. Determine the surface area of the defined wound area: Total Surface Area=0.9 mm x length. Determine the surface area of the migrated cells into the wound area: Migrated Cell Surface Area=length of cell migration (mm)×2 x length. Percent Closure (%)=Migrated Cell Surface Area/Total Surface Area x 100.

MCF-7 cells = experiment: as above; type: cell-based, human; details: treated 2 hours
Procedure: as §1

[6] = tested on: MDA-MB 231 and MCF-7 human breast epithelial cell lines; experiment: Wound healing assay, overall statements for both cell lines; type: cell-based
Procedure: as §1

[7] = Table 2; cited from earlier work
[8] = tested on: human epithelial colorectal adenocarcinoma (Caco-2) cells; details: cited from earlier work
[9] = tested on: H7-O Lewis lung cancer cells; details: mice implanted with H7-O Lewis lung cancer cells; cited from earlier work
[10] = tested on: RTK-[PIP2]-PI3K-[PIP3]-AKT signaling in HeLa cells; details: cited from earlier work
α-synuclein = details: mice, neuronal cell body and synapses; cited from earlier work
mouse model of BC = details: cited from earlier work
[11] = tested on: H7 Lewis lung cancer cell lines; details: three H7 Lewis lung cancer cell lines; cited from earlier work
[12] = tested on: primary effusion lymphoma (PEL); details: mice; cited from earlier work
[13] = tested on: MDA-MB-241 and ZR751 BC cells; details: cited from earlier work
MDA-MB-231 BC cells = details: cited from earlier work
urothelial cancer cells = details: cited from earlier work
MCF7 BC cells = details: cited from earlier work
[14] = target: BC resistance protein (BCRP/ABCG2) (Homo sapiens, UniProt Q9UNQ0); details: cited from earlier work
Chain of BC resistance protein (BCRP/ABCG2) (Q9UNQ0 whole entry): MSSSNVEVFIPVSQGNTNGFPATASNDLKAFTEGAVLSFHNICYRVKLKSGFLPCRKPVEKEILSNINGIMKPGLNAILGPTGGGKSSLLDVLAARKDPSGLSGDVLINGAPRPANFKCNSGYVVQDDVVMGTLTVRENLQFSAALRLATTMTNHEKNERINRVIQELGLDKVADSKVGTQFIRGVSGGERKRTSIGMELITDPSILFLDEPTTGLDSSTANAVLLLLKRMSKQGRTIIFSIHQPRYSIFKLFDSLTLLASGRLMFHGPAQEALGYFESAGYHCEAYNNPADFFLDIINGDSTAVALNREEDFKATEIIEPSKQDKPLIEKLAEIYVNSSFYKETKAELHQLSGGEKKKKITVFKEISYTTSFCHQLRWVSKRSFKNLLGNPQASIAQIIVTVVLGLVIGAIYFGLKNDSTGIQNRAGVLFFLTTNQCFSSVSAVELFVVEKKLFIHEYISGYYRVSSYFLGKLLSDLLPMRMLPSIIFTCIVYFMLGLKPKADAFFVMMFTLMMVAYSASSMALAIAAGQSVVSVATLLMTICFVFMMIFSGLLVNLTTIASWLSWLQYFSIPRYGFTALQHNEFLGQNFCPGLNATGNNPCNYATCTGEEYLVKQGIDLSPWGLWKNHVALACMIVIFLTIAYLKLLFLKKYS

leukemia cell lines = details: cited from earlier work
[15] = tested on: BC and prostate cancer cell lines; details: cancer cell lines vs normal counterparts; cited from earlier work

## OC[C@H]1O[C@@H]2O[C@H]3[C@H](O)[C@@H](O)[C@@H](O[C@H]4[C@H](O)[C@@H](O)[C@@H](O[C@H]5[C@H](O)[C@@H](O)[C@@H](O[C@H]6[C@H](O)[C@@H](O)[C@@H](O[C@H]7[C@H](O)[C@@H](O)[C@@H](O[C@H]8[C@H](O)[C@@H](O)[C@@H](O[C@H]1[C@H](O)[C@H]2O)O[C@@H]8CO)O[C@@H]7CO)O[C@@H]6CO)O[C@@H]5CO)O[C@@H]4CO)O[C@@H]3CO [β-cyclodextrin, beta-cyclodextrin]
[1]
  steady-state volume of distribution: corresponds well with the extracellular fluid volume of each species
Ab1-40/42
  toxicity of Ab1-40/42: Toxicity of Ab1-40/42 was reduced
Human keratinocytes
  apoptotic cell death: induces caspase-dependent apoptotic cell death
Rats [2]
  deaths, daily doses s.c.: no deaths
BBB
  Transport across BBB: 9.3 (1 mM) %
  BBB breakdown: 2.5 mM
Rats [3]
  acute i.v. toxicity in rats: 1 g/kg
Rats [4]
  LD50: 788 mg/kg
Transferrin endocytosis
  reduction of transferrin endocytosis: 80%

## OC[C@H]1O[C@@H]2O[C@H]3[C@H](O)[C@@H](O)[C@@H](O[C@H]4[C@H](O)[C@@H](O)[C@@H](O[C@H]5[C@H](O)[C@@H](O)[C@@H](O[C@H]6[C@H](O)[C@@H](O)[C@@H](O[C@H]7[C@H](O)[C@@H](O)[C@@H](O[C@H]8[C@H](O)[C@@H](O)[C@@H](O[C@H]9[C@H](O)[C@@H](O)[C@@H](O[C@H]1[C@H](O)[C@H]2O)O[C@@H]9CO)O[C@@H]8CO)O[C@@H]7CO)O[C@@H]6CO)O[C@@H]5CO)O[C@@H]4CO)O[C@@H]3CO [γ-CD, gamma-cyclodextrin]
Human erythrocytes
  hemolytic activity: β-CD>α-CD>γ-CD

## alendronate-β-CD [ALN-β-CD]
[5]
  effect on bone: bone-anabolic

## hydroxypropyl-alpha-cyclodextrin [HPaCD]
MDA-MB-231 cells; 1 mM
  average wound closure: 53.00%
  wound closure (Percent Closure), replications r1-r3: 47.00% and 53.00% and 59.00%
MDA-MB-231 cells; 2 mM
  average wound closure: 40.00%
  wound closure (Percent Closure), replications r1-r3: 40.00% and 33.00% and 47.00%
MDA-MB-231 cells; 4 mM
  average wound closure: 31.67%
  wound closure (Percent Closure), replications r1-r3: 38.00% and 32.00% and 25.00%
MCF-7 cells; 1 mM
  average wound closure: 41.33%
  wound closure (Percent Closure), replications r1-r3: 35.00% and 41.00% and 48.00%
MCF-7 cells; 2 mM
  average wound closure: 36.00%
  wound closure (Percent Closure), replications r1-r3: 40.00% and 30.00% and 38.00%
MCF-7 cells; 4 mM
  average wound closure: 28.67%
  wound closure (Percent Closure), replications r1-r3: 28.00% and 22.00% and 36.00%
[6]
  inhibition at 1 mM HPaCD compared with 2 mM HPbCD: superior to inhibition at 2 mM HPbCD
[6]; 1-4 mM
  migration versus concentration: migration decreased with higher concentration
[6]; all cases
  effect on migration, HPaCD compared with HPbCD: stronger effect on migration than HPbCD
BBB
  Transport across BBB: 26.7 (1 mM) %
  BBB breakdown: 2.5 mM
[7]
  Solubility in water: ~500^a g/l
[8]; Caco-2 cells
  cytotoxicity: less cytotoxic than α-cyclodextrin

## maltosyl-α-cyclodextrin
[8]
  cytotoxicity: less cytotoxic than α-cyclodextrin

## methyl-β-cyclodextrin [MβCD]
[9]
  number of lung metastases: reduced the number of lung metastases
[10]
  RTK-[PIP2]-PI3K-[PIP3]-AKT signaling: interfered with RTK-[PIP2]-PI3K-[PIP3]-AKT signaling
α-synuclein
  accumulation of α-synuclein: reduced accumulation of α-synuclein
Mouse model of BC
  concentration in tumor: higher concentration in tumor than in other cells (except kidney and liver)
Mouse model of BC; in vivo
  efficacy in mouse model of BC: effective
[11]
  invasion activity: suppressed invasion activity
[12]
  growth of primary effusion lymphoma: inhibited growth
[13]
  spheroid migration and invasion: inhibited
MDA-MB-231 BC cells
  internalization of exosomes containing integrins: inhibited the internalization of exosomes
Urothelial cancer cells
  toxicity, invasive vs non-invasive cells: more toxic for invasive than for non-invasive urothelial cancer cells
MCF7 BC cells
  endocytosis: inhibited
  migration: inhibited
[14]
  decrease in activity of BCRP/ABCG2: 40%
Leukemia cell lines
  growth of leukemia cell lines: inhibited the growth
[15]
  sensitivity to induced cell death: more sensitive to MβCD-induced cell death than their normal counterparts
